Source: US8257696B2, “Indefinite culture of human adult glia without immortalization and therapeutic uses thereof” (University of Florida Research Foundation, Inc., priority 2004, dated 2012)
Entries after “also recorded” stand apart in the source; their conditions may differ.

Columns and labels:
Assay type in all cases: cell-based, human
TERT = assay: Telomerase (TERT) expression after growth arrest; conditions: high passage cells, measured 7 days after addition
Method: Cells were plated on coverslips coated with poly-L-lysine or polyornithine and laminin and grown to confluency in proliferative media. Cells were fixed with 4% paraformaldehyde ([…], 25° C.). After washing with PBS, cells were blocked 20 min in PBS containing 10% FCS, 5% normal goat serum, and 0.01% Triton X-100. Primary antibodies were applied for either 1 hour at 25° C. or overnight at 4° C. in PBS containing 10% FCS and 0.01% Triton X-100. Primary antibodies: β III tubulin (mouse monoclonal, 1:300, Promega), BrdU (mouse monoclonal, 1:50, Becton-Dickinson), CNPase (mouse monoclonal, 1:250, Chemicon), GFAP (rabbit polyclonal, 1:600, DAKO), glutamine synthetase (rabbit polyclonal, 1:100, AbCam), map2a-c (chicken polyclonal, 1:30,000), nestin (mouse monoclonal, 1:50, Chemicon), O4 (mouse monoclonal IgM, 1:150, Chemicon), S100-β (rabbit polyclonal, 1:100, Swant), telomerase (rabbit polyclonal, 1:200, Santa Cruz). Secondary antibodies were applied for 45 min at 25° C. in PBS containing 10% FCS and 0.01% Triton X-100. […] SA-βGal expression was assessed 7 days after addition of growth arrestors as described (Dimri, G. P. et al. Proc Nat'l Acad Sci U S A 92, 9363-7 (1995)). […] Fluorescence microscopy was performed on a Leica DMLB upright microscope and images were captured with a Spot RT Color CCD camera (Diagnostic Instruments). […]

[1] = system: high passage cells (HES astroglia); assay: Senescence-associated β-galactosidase (SA-β-gal) expression after growth arrestors; conditions: evaluated 7 days after addition, 1 μg/ml aphidicolin or 20 μM EGCG, vs age-matched controls
Method: Primary tissue was gathered from individuals undergoing surgery related to medically intractable temporal lobe epilepsy. Primary tissue was removed and stored overnight in ice-cold DMEM/F-12 medium containing 20 mg/ml penicillin, […] streptomycin., and 25 ng/ml amphotericin B (collectively 1× antibiotics). Hippocampus (containing hilus) and temporal cortex (not containing subventricular zone) were microdissected from biopsied tissue samples (n=4, data presented from person). Dissected tissues were placed in 1× phosphate buffered saline (PBS, pH 7.3) lacking CaCl2 or MgCl2, and were manually dissociated into 1 mm^3 pieces under sterile conditions. Tissues were collected and resuspended in 0.005% trypsin (15 min, 37° C., pH 7.3), and were further triturated using restricted bore pipetting. Cells were collected, resuspended in proliferative media, and seeded onto uncoated T75 culture flasks overnight (12 hr, 37° C., 5% humidified CO2). […] Cells were dissociated with 0.005% trypsin, counted (using trypan dye exclusion as viability criteria), and were replated onto uncoated 60 mm plastic dishes. […] To assess viability of cells in various growth conditions, equal numbers of culture-matched cells were seeded into triplicate wells of various proliferative conditions, and counted 7, 14, and 21 days later. […] Significance (p<0.05) was calculated using a student's t-test. […]

[2] = system: high passage cells (HES astroglia); assay: Growth rate by cell counting after reversible growth inhibitors and washout; conditions: for proliferation upon removal of growth inhibitors: after removal of inhibitor; for rate of cellular proliferation (growth rate): high passage cells, measured 7 days after addition
Method: Primary tissue was gathered from individuals undergoing surgery related to medically intractable temporal lobe epilepsy. Primary tissue was removed and stored overnight in ice-cold DMEM/F-12 medium containing 20 mg/ml penicillin, […] streptomycin., and 25 ng/ml amphotericin B (collectively 1× antibiotics). Hippocampus (containing hilus) and temporal cortex (not containing subventricular zone) were microdissected from biopsied tissue samples (n=4, data presented from person). Dissected tissues were placed in 1× phosphate buffered saline (PBS, pH 7.3) lacking CaCl2 or MgCl2, and were manually dissociated into 1 mm^3 pieces under sterile conditions. Tissues were collected and resuspended in 0.005% trypsin (15 min, 37° C., pH 7.3), and were further triturated using restricted bore pipetting. Cells were collected, resuspended in proliferative media, and seeded onto uncoated T75 culture flasks overnight (12 hr, 37° C., 5% humidified CO2). Unattached cells were collected and seeded onto uncoated 60 mm plastic dishes in proliferative media. Proliferative media was comprised of DMEM/F-12 containing N2 supplements, 35 μg/ml bovine pituitary extract, 1× antibiotics, 5% fetal calf serum (FCS), and 40 ng/ml of EGF and FGF. 20 ng of EGF and FGF were supplemented twice daily. When necessary, media was changed every fourth day. Cells were frozen in aliquots of 1 million cells in DMEM/F-12 containing 10% FCS and 20% dimethyl sulfoxide (v/v). Cells were passaged 1:2 when confluent. Cells were dissociated with 0.005% trypsin, counted (using trypan dye exclusion as viability criteria), and were replated onto uncoated 60 mm plastic dishes. For growth monitoring experiments, 1 μg/ml aphidicolin or 20 μM EGCG were added to culture media 1 hour after plating. Irradiated cells were treated with a single 3 Gy dose of X-irradiation. Following the period of application, cells were washed in 1×PBS and were resuspended in proliferative media or fixed. To assess viability of cells in various growth conditions, equal numbers of culture-matched cells were seeded into triplicate wells of various proliferative conditions, and counted 7, 14, and 21 days later. For growth factor analysis, EGF and/or FGF were removed for seven days, and surviving cells were returned to proliferative media. Significance (p<0.05) was calculated using a student's t-test. In vitro images of cultured cells were captured using a Nikon Eclipse TS-100 bright field microscope and a Spot 3.1 digital camera (Diagnostic Instruments).
Isolation and Culture of Tissue: Primary tissue was gathered from individuals undergoing surgery related to medically intractable temporal lobe epilepsy. […]

Row | Molecule | TERT (telomerase) expression (TERT) | SA-β-gal expression [1] | proliferation upon removal of growth inhibitors [2] | rate of cellular proliferation (growth rate) [2]
1 | epigallocatechin-3-gallate [EGCG] | continue to express telomerase; also recorded: remained detectable; also recorded: remained ubiquitous | marked increase in SA-β-Gal; also recorded: express SA-β-Gal | return to previous levels of proliferation | lose their ability to proliferate in culture; also recorded: significantly reduced; also recorded: significant reduction
2 | C[C@@]1(CO)[C@H](O)CC[C@@]2(C)[C@H]1CC[C@H]1C[C@@H]3C[C@@]12CC[C@]3(O)CO [aphidicolin] | continue to express telomerase | marked increase in SA-β-Gal; also recorded: significantly higher levels of SA-β-gal than age-matched controls | return to previous levels of proliferation | lose their ability to proliferate in culture
